Laboratory results as given in PMC9856672, “SGC-CAMKK2-1: A Chemical Probe for CAMKK2” (Cells, 2023).

Experiments:
[1] = target: T1, NLuc-CAMKK2 (kinase domain) in HEK293 cells (Homo sapiens, UniProt Q96RR4); experiment: CAMKK2 NanoBRET in-cell target engagement assay; format: cell-based; details: HEK293 cells transiently transfected with NLuc-CAMKK2
T1 construct: this assay utilizes a nanoluciferase (NL) fused to the kinase domain of CAMKK2; expressed in transfected cells; host or cells: HEK293
Procedure: CAMKK2 NanoBRET assay: To quantify the cellular activity of these inhibitors we developed a CAMKK2 NanoBRET target engagement assay [51, 52]. Briefly this assay utilizes a nanoluciferase (NL) fused to the kinase domain of CAMKK2. This NL kinase fusion is then transiently transfected into HEK293 cells and after 24 h, tracer is added to the cells. When the tracer and the NL-CAMKK2 fusion come into proximity they create a BRET signal that can be competed in a dose-dependent manner by the addition of cell-penetrant CAMKK2 inhibitors.
To evaluate this, we developed a NanoBRET in-cell target engagement assay. For this assay, the CAMKK2 kinase domain fused with a Nanoluciferase (NLuc) tag is transiently transfected into HEK293 cells. After 24 h, a heterobifunctional molecule that consists of an inhibitor that binds to CAMKK2 linked to a BODIPY dye is added to the cells. When the inhibitor–dye hybrid binds to the kinase, the proximity to the NLuc fused to CAMKK2 creates a BRET signal. This signal can then be competed away in a dose-dependent fashion with free inhibitor.

[2] = target: T2, GRK7 (Homo sapiens, UniProt Q8WTQ7); experiment: KINOMEscan at 1 μM, GRK7; format: binding; details: 1000 nM, read-out: Percent Control
T2 construct: purchased Eurofins DiscoverX KINOMEscan
Excerpt: (§1) Supplement cells-12-00287-s001.zip/File S2. KinomeScan data for the CAMKK2 probe and negative control.xlsx, sheet "SGC-CAMKK2-1N" | column: Percent Control

[3] = target: T3, TXK (Homo sapiens, UniProt P42681); experiment: KINOMEscan at 1 μM, TXK; format: binding; details: 1000 nM, read-out: Percent Control
T3 construct: purchased Eurofins DiscoverX KINOMEscan
Excerpt: as §1

[4] = target: T4, KIT(D816H) (Homo sapiens, UniProt P10721, D816H); experiment: KINOMEscan at 1 μM, KIT(D816H); format: binding; details: 1000 nM, read-out: Percent Control
T4 construct: purchased Eurofins DiscoverX KINOMEscan
T4 sequence (P10721 26-976 D816H): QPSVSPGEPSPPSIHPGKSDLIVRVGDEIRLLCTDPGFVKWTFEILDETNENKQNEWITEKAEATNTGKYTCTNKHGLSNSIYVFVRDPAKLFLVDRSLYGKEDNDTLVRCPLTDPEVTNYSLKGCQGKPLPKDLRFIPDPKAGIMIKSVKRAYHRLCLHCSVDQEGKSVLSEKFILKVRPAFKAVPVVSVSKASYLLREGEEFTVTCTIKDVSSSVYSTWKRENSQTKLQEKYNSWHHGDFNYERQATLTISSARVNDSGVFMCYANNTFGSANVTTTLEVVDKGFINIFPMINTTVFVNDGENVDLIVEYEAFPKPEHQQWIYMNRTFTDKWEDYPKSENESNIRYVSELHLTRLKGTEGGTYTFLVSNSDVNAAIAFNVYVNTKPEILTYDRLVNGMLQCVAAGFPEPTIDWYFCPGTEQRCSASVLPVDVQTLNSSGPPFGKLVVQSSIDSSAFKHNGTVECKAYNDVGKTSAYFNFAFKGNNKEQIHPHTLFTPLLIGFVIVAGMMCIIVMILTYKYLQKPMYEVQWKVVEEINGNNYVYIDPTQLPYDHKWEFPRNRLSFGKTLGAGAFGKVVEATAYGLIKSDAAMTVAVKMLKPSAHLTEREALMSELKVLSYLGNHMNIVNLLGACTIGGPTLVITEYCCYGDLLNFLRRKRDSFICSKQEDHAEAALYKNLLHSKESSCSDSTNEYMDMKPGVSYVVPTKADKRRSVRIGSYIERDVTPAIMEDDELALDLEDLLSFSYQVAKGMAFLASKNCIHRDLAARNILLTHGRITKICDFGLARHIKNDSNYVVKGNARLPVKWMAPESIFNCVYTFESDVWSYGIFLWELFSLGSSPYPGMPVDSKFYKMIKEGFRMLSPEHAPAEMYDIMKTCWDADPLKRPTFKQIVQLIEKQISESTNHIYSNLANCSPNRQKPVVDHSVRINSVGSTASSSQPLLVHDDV
Excerpt: as §1

[5] = target: T5, PFPK5(P.falciparum) (Plasmodium falciparum, UniProt P61075); experiment: KINOMEscan at 1 μM, PFPK5(P.falciparum); format: binding; details: 1000 nM, read-out: Percent Control
T5 construct: purchased Eurofins DiscoverX KINOMEscan
Excerpt: as §1

[6] = target: T6, CDC2L1 (Homo sapiens, UniProt P21127); experiment: KINOMEscan at 1 μM, CDC2L1; format: binding; details: 1000 nM, read-out: Percent Control
T6 construct: purchased Eurofins DiscoverX KINOMEscan
T6 sequence (P21127 whole entry): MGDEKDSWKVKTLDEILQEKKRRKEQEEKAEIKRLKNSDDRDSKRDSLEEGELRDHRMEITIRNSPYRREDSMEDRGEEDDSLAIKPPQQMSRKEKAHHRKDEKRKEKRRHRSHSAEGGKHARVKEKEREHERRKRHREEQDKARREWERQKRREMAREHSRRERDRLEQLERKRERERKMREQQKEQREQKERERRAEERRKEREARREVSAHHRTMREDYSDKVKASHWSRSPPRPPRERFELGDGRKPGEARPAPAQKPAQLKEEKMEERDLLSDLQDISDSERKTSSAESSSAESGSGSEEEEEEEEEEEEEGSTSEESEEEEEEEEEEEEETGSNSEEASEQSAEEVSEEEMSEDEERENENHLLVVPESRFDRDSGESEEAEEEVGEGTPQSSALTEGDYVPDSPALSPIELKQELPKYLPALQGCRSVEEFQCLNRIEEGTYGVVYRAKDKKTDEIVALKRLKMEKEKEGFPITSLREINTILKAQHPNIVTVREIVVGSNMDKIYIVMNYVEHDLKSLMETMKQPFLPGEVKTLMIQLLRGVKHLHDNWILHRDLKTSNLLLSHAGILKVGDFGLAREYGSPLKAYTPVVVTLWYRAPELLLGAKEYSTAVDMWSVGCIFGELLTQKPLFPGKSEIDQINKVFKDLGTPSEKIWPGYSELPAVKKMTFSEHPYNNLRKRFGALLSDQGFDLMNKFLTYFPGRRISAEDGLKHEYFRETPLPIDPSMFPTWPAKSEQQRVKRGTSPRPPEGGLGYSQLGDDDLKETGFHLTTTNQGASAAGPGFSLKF
Excerpt: as §1

[7] = target: T7, SRMS (Homo sapiens, UniProt Q9H3Y6); experiment: KINOMEscan at 1 μM, SRMS; format: binding; details: 1000 nM, read-out: Percent Control
T7 construct: purchased Eurofins DiscoverX KINOMEscan
Excerpt: as §1

[8] = target: T8, MLK1 (Homo sapiens, UniProt P80192); experiment: KINOMEscan at 1 μM, MLK1; format: binding; details: 1000 nM, read-out: Percent Control
T8 construct: purchased Eurofins DiscoverX KINOMEscan
Excerpt: as §1

[9] = target: T9, PCTK1 (Homo sapiens, UniProt Q00536); experiment: KINOMEscan at 1 μM, PCTK1; format: binding; details: 1000 nM, read-out: Percent Control
T9 construct: purchased Eurofins DiscoverX KINOMEscan
T9 sequence (Q00536 whole entry): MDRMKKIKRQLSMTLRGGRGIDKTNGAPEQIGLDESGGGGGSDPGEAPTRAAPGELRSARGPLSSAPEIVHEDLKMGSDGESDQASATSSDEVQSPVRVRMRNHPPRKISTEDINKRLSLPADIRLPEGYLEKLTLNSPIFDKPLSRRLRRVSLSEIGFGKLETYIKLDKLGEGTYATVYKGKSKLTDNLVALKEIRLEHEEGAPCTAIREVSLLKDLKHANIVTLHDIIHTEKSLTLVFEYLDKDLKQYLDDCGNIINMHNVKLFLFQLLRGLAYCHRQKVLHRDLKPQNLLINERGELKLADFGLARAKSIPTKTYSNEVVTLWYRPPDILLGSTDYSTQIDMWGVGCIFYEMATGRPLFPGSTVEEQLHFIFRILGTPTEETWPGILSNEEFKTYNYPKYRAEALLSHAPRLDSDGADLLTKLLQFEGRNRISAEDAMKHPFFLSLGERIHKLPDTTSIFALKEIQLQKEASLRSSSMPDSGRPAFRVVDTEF
Excerpt: as §1

[10] = target: T10, KIT(A829P) (Homo sapiens, UniProt P10721, A829P); experiment: KINOMEscan at 1 μM, KIT(A829P); format: binding; details: 1000 nM, read-out: Percent Control
T10 construct: purchased Eurofins DiscoverX KINOMEscan
T10 sequence (P10721 26-976 A829P): as the sequence (P10721 26-976 D816H) above, with H791D, A804P counted along it
Excerpt: as §1

[11] = target: T11, STK35 (Homo sapiens, UniProt Q8TDR2); experiment: KINOMEscan at 1 μM, STK35; format: binding; details: 1000 nM, read-out: Percent Control
T11 construct: purchased Eurofins DiscoverX KINOMEscan
Excerpt: as §1

[12] = target: T12, RIPK1 (Homo sapiens, UniProt Q13546); experiment: KINOMEscan at 1 μM, RIPK1; format: binding; details: 1000 nM, read-out: Percent Control
T12 construct: purchased Eurofins DiscoverX KINOMEscan
Excerpt: as §1

[13] = target: T13, ERK3 (Homo sapiens, UniProt Q16659); experiment: KINOMEscan at 1 μM, ERK3; format: binding; details: 1000 nM, read-out: Percent Control
T13 construct: purchased Eurofins DiscoverX KINOMEscan
Excerpt: as §1

[14] = target: T14, KIT-autoinhibited (Homo sapiens, UniProt P10721); experiment: KINOMEscan at 1 μM, KIT-autoinhibited; format: binding; details: 1000 nM, read-out: Percent Control
T14 construct: purchased Eurofins DiscoverX KINOMEscan
T14 sequence (P10721 26-976): as the sequence (P10721 26-976 D816H) above, with H791D counted along it
Excerpt: as §1

[15] = target: T15, DYRK1B (Homo sapiens, UniProt Q9Y463); experiment: KINOMEscan at 1 μM, DYRK1B; format: binding; details: 1000 nM, read-out: Percent Control
T15 construct: purchased Eurofins DiscoverX KINOMEscan
Excerpt: as §1

[16] = target: T16, TNK2 (Homo sapiens, UniProt Q07912); experiment: KINOMEscan at 1 μM, TNK2; format: binding; details: 1000 nM, read-out: Percent Control
T16 construct: purchased Eurofins DiscoverX KINOMEscan
Excerpt: as §1

[17] = target: T17, SRC (Homo sapiens, UniProt P12931); experiment: KINOMEscan at 1 μM, SRC; format: binding; details: 1000 nM, read-out: Percent Control
T17 construct: purchased Eurofins DiscoverX KINOMEscan
Excerpt: as §1

[18] = target: T18, EGFR(G719C) (Homo sapiens, UniProt P00533, G719C); experiment: KINOMEscan binding assay at 1 μM, EGFR(G719C); details: Compound Concentration 1000 nM; read-out: Percent Control
T18 construct: purchased Eurofins DiscoverX KINOMEscan
T18 sequence (P00533 25-1210 G719C): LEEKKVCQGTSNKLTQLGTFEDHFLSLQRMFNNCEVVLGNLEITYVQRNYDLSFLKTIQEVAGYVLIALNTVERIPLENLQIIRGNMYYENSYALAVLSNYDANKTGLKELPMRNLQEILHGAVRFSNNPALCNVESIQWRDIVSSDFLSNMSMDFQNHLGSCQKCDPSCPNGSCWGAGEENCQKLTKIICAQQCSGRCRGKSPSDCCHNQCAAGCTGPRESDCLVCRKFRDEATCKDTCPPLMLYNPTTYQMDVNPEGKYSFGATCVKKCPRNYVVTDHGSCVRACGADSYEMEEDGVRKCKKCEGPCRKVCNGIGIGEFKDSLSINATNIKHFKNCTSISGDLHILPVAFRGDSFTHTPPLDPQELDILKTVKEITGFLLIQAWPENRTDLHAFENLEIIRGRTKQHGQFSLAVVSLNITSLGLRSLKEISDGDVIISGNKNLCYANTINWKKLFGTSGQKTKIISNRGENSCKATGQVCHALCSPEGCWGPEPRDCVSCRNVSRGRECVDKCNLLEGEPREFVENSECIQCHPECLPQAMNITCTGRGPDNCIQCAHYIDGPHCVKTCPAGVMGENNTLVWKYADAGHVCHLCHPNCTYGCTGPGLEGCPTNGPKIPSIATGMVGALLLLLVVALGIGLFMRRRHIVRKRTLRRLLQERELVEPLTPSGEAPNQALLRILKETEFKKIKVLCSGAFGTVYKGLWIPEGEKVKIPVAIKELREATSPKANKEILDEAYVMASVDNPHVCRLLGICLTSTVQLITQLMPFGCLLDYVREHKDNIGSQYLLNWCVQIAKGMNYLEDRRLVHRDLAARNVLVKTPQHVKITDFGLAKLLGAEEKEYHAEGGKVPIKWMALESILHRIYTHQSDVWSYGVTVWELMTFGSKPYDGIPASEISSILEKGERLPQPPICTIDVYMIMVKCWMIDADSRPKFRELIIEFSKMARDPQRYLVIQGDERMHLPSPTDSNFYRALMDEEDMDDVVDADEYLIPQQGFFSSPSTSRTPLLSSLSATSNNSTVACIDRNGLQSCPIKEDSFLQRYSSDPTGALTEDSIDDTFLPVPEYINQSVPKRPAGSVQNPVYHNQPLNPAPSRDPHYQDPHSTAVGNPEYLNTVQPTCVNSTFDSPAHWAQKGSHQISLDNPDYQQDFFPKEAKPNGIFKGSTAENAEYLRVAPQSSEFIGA
Excerpt: as §1

[19] = target: T19, MLCK (Homo sapiens, UniProt Q32MK0); experiment: KINOMEscan binding assay at 1 μM, MLCK; details: Compound Concentration 1000 nM; read-out: Percent Control
T19 construct: purchased Eurofins DiscoverX KINOMEscan
Excerpt: as §1

[20] = target: T20, RSK3(Kin.Dom.1-N-terminal) (Homo sapiens, UniProt Q15349); experiment: KINOMEscan binding assay at 1 μM, RSK3(Kin.Dom.1-N-terminal); details: Compound Concentration 1000 nM; read-out: Percent Control
T20 construct: RSK3(Kin.Dom.1-N-terminal); purchased Eurofins DiscoverX KINOMEscan
Excerpt: as §1

[21] = target: T21, ACVR2B (Homo sapiens, UniProt Q13705); experiment: KINOMEscan 1 μM, ACVR2B; format: binding; details: 1000 nM; Entrez ACVR2B; read-out: Percent Control
T21 construct: purchased Eurofins DiscoverX KINOMEscan
T21 sequence (Q13705 19-512): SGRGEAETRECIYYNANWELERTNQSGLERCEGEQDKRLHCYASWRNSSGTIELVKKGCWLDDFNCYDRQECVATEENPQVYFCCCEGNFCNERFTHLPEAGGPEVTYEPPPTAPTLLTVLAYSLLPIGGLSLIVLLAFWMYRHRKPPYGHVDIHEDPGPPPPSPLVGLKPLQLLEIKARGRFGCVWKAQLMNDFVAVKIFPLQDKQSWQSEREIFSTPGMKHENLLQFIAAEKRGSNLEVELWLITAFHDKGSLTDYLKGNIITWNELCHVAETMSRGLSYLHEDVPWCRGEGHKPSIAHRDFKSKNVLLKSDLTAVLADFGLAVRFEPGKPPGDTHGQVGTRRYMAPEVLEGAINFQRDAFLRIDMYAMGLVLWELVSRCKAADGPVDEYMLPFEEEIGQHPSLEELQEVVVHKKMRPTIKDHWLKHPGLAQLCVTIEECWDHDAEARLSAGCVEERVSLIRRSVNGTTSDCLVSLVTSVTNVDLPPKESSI
Excerpt: (§2) Supplement cells-12-00287-s001.zip/File S2. KinomeScan data for the CAMKK2 probe and negative control.xlsx, sheet "SGC-CAMKK2-1" | column: Percent Control

[22] = target: T22, PIK3CA(I800L) (Homo sapiens, UniProt P42336, I800L); experiment: KINOMEscan 1 μM, PIK3CA(I800L); format: binding; details: 1000 nM; Entrez PIK3CA; read-out: Percent Control
T22 construct: purchased Eurofins DiscoverX KINOMEscan
Excerpt: as §2

[23] = target: T23, CDK7 (Homo sapiens, UniProt P50613); experiment: KINOMEscan 1 μM, CDK7; format: binding; details: 1000 nM; Entrez CDK7; read-out: Percent Control
T23 construct: purchased Eurofins DiscoverX KINOMEscan
Excerpt: as §2

[24] = target: T24, FLT3(N841I) (Homo sapiens, UniProt P36888, N841I); experiment: KINOMEscan 1 μM, FLT3(N841I); format: binding; details: 1000 nM; Entrez FLT3; read-out: Percent Control
T24 construct: purchased Eurofins DiscoverX KINOMEscan
Excerpt: as §2

[25] = target: T25, AAK1 (Homo sapiens, UniProt Q2M2I8); experiment: KINOMEscan 1 μM, AAK1; format: binding; details: 1000 nM; Entrez AAK1; read-out: Percent Control
T25 construct: purchased Eurofins DiscoverX KINOMEscan
T25 sequence (Q2M2I8 whole entry): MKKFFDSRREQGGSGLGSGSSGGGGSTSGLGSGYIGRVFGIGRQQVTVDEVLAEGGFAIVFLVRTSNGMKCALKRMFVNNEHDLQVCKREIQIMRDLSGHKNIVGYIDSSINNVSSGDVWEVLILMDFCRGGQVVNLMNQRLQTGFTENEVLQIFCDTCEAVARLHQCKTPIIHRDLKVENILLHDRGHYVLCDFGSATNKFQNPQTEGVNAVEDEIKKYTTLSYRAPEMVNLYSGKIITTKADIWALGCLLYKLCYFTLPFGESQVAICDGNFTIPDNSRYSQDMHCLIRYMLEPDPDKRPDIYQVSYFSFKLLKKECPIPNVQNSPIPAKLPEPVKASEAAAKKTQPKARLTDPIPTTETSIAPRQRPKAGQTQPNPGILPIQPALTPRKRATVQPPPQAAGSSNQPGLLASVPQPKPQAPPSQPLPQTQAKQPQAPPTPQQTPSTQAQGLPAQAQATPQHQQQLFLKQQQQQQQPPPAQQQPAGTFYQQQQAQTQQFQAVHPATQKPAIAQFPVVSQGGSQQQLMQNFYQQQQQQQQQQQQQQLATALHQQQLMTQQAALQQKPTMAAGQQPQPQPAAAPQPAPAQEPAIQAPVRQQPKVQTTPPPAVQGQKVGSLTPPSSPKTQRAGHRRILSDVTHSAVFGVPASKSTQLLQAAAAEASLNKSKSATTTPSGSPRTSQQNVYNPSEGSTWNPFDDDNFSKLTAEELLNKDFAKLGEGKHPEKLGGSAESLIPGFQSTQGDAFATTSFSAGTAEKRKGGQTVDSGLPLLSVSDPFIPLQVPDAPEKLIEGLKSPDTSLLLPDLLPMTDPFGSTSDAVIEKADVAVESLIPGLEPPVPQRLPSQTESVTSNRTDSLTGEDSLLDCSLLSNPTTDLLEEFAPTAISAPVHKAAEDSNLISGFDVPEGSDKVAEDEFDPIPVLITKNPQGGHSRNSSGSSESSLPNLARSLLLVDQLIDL
Excerpt: as §2

[26] = target: T26, ACVR1B (Homo sapiens, UniProt P36896); experiment: KINOMEscan 1 μM, ACVR1B; format: binding; details: 1000 nM; Entrez ACVR1B; read-out: Percent Control
T26 construct: purchased Eurofins DiscoverX KINOMEscan
Excerpt: as §2

[27] = target: T27, CAMK4 (Homo sapiens, UniProt Q16566); experiment: KINOMEscan 1 μM, CAMK4; format: binding; details: 1000 nM; Entrez CAMK4; read-out: Percent Control
T27 construct: purchased Eurofins DiscoverX KINOMEscan
Excerpt: as §2

[28] = target: T28, CDK4-cyclinD3 (Homo sapiens, UniProt P11802); experiment: KINOMEscan 1 μM, CDK4-cyclinD3; format: binding; details: 1000 nM; Entrez CDK4; read-out: Percent Control
T28 construct: purchased Eurofins DiscoverX KINOMEscan
Excerpt: as §2

[29] = target: T29, CDKL1 (Homo sapiens, UniProt Q00532); experiment: KINOMEscan 1 μM, CDKL1; format: binding; details: 1000 nM; Entrez CDKL1; read-out: Percent Control
T29 construct: purchased Eurofins DiscoverX KINOMEscan
Excerpt: as §2

[30] = target: T30, KIT(L576P) (Homo sapiens, UniProt P10721, L576P); experiment: KINOMEscan 1 μM, KIT(L576P); format: binding; details: 1000 nM; Entrez KIT; read-out: Percent Control
T30 construct: purchased Eurofins DiscoverX KINOMEscan
T30 sequence (P10721 26-976 L576P): as the sequence (P10721 26-976 D816H) above, with L551P, H791D counted along it
Excerpt: as §2

[31] = target: T31, MAP3K1 (Homo sapiens, UniProt Q13233); experiment: KINOMEscan 1 μM, MAP3K1; format: binding; details: 1000 nM; Entrez MAP3K1; read-out: Percent Control
T31 construct: purchased Eurofins DiscoverX KINOMEscan
Excerpt: as §2

[32] = target: T32, RIPK5 (Homo sapiens, UniProt Q6XUX3); experiment: DiscoverX KINOMEscan binding assay at 1 μM, RIPK5; details: RIPK5 (DSTYK); Compound Concentration 1000 nM; read-out: Percent Control
T32 construct: purchased Eurofins DiscoverX KINOMEscan
Excerpt: as §2

## Cc1cccc(-c2cnc3occ(-c4ccc(C(=O)O)c(C5CCCC5)c4)c3c2)c1 [Compound 5]
[1]
  IC50: 270 nM

## O=C(O)c1ccc(-c2coc3ncc(-c4ccccc4)cc23)cc1Cl [SGC-CAMKK2-1N (UNC-YL-83)]
[2]
  remaining binding at 1 µM: 50%
[3]
  remaining binding at 1 µM: 53%
[4]
  remaining binding at 1 µM: 57%
[5]
  remaining binding at 1 µM: 69%
[6]
  remaining binding at 1 µM: 72%
[7]
  remaining binding at 1 µM: 79%
[8]
  remaining binding at 1 µM: 82%
[9]
  remaining binding at 1 µM: 83%
[10]
  remaining binding at 1 µM: 86%
[11]
  remaining binding at 1 µM: 88%
[12]
  remaining binding at 1 µM: 90%
[13]
  remaining binding at 1 µM: 92%
[14]
  remaining binding at 1 µM: 92%
[15]
  remaining binding at 1 µM: 94%
[16]
  remaining binding at 1 µM: 94%
[17]
  remaining binding at 1 µM: 97%
[18]
  remaining binding at 1 µM: 100%
[19]
  remaining binding at 1 µM: 100%
[20]
  remaining binding at 1 µM: 100%

## Cc1cccc(-c2cnc3occ(-c4ccc(C(=O)O)c(C5CCCC5)c4)c3c2)c1 [SGC-CAMKK2-1 (YL-36)]
[21]
  remaining binding at 1 µM: 43%
[22]
  remaining binding at 1 µM: 85%
[23]
  remaining binding at 1 µM: 92%
[24]
  remaining binding at 1 µM: 95%
[25]
  remaining binding at 1 µM: 98%
[26]
  remaining binding at 1 µM: 100%
[27]
  remaining binding at 1 µM: 100%
[28]
  remaining binding at 1 µM: 100%
[29]
  remaining binding at 1 µM: 100%
[30]
  remaining binding at 1 µM: 100%
[31]
  remaining binding at 1 µM: 100%
[32]
  remaining binding at 1 µM: 100%
